Reference: patent US10537583B2, “Oral formulation of A-nor-5α androstane compound” (priority 2014, dated 2020)
Like-named read-outs stand apart in the source and are kept apart here.

How the values were obtained:
[1] = n-octanol, 37° C., n = 3
Method: PBS with different pH was prepared, and oil-water partition coefficient of A-nor-5α androstane compound (Ia) in a buffer solution with different pH (e.g., 2.0, 4.5, 5.0, 6.0, 6.8, 7.4, respectively) was determined by shake-flask method. Water-saturated n-octanol was used to prepare a stock solution of A-nor-5α androstane compound, concentration of which was about 10 mg/mL. A variety of n-octanol-saturated PBS and aqueous solution (5 ml) was taken and added into glass tubes with plug. 0.5 mL of stock solution of A-nor-5α-androstane compound was added. The tubes were sealed completely and subjected to a 37° C. thermostatic oscillator, and sampled after shaking for 24 h. Samples from water phase and oil phase were taken for analysis by HPLC, respectively. The drug concentrations in water and oil phase were calculated. According to […], oil-water partition coefficient (Log P) was calculated and the results are shown in Table 2.

[2] = 37° C., 72 hours, n = 3
Method: Phosphate buffer solution (PBS) with different pH was prepared (pH is 1.0, 5.0, 5.5, 5.8, 6.0, 6.8 and 7.4). The equilibrium solubility of A-nor-5α androstane compounds (Ia) in PBS with different pH was determined by using Equilibrium Method. Method: 5 mL of each medium was removed into test tubes with plug and about 30 mg of crude drugs comprising A-nor-5α androstane compounds were added into the tubes respectively. The tubes were subjected to a thermostatic oscillator (37° C.) and vibrated at 100 rpm. After 72 hours, the sample was taken and subjected to HPLC analysis.

[3] = From the text: It mainly relies on passive diffusion mechanism for transport, uptake and absorb in the body and the uptake amounts are dependent on the time and dose. A-nor-5α-androstane compound can be administered by oral pathway. […] Therefore, an oral formulation, such as ordinary oral tablet, oral capsule and other sustained-release preparation, is designed according to the present invention.
[4] = Beagle dogs, 1.0 mg/kg by gastric gavage
[5] = for Ka (absorption rate constant) / P (cumulative absorption percentage) / Q (absorption dose in 2 hours): n = 3
Method: A suitable concentration of intestinal circulating liquid comprising A-nor-5α-androstane compounds (Ia) was prepared by using PBS (pH 5.5 and pH 6.8) containing phenol red. Rats were fasting over 12 hours before the experiment and then subjected to intraperitoneal injection with urethane solution (dose 4 mL/kg) at a concentration of 0.3 g/ml for anesthesia. The rats were fixed and a 3 cm incision was made along the medioventral line. The duodenum (start from 1 cm below the pyloru, intestinal circulating fluid comprising A-nor-5α androstane compound, pH 5.5), the jejunum (start from […], intestinal circulating fluid comprising A-nor-5α androstane compound, pH 6.8), and the ileum (start from 30 cm below the pylorus, intestinal circulating fluid comprising A-nor-5α androstane compound, pH 6.8) were incubated and ligated. Preheated saline (37° C.) was used to clean the intestinal contents, and then the air (37° C.) was ventilated into the intestine to remove the saline. The wound was covered with dressing, and infrared lamp was used to keep warm (37° C.). The reflux device was connected and after 50 ml of drug-containing circulating fluid at a constant temperature of 37° C. was balanced at 3 mL/min for 5 min, timing was started when the flow rate was adjusted to 1 mL/ml. Samples (1 mL for each) were taken at 0, 15, 30, 45, 60, 90, and 120 min, while adding blank circulating fluid (1 mL). The sample was subjected to HPLC analysis after appropriate treatment. The volume of circulating fluid was corrected according to the concentration of phenol red. Then the remained amounts of drug X were calculated by the concentration of A-nor-5α androstane compounds and the volume of circulating fluid. Line slope is the absorption rate constant (Ka) of a drug. The cumulative absorption percentage (P) of the drug is obtained by comparing the absorption dose (Q) of a drug in 2 hours to the initial dose (X0) before absorption.

[6] = system: Caco-2 cells
Method: The qualified Transwell plate was taken. The nutrient solution comprising drugs was prepared by using Hank's balanced salt solution (HBSS) to study the bidirectional transfer of A-nor-5α-androstane compounds (Ia) with different concentrations in Caco-2 cells.

[7] = system: Caco-2 cells; remark: listed apart in the source
Method: Caco-2 cells were spotted on a six-well plate. When the cells were grown to an inoculation density of 8×10^4 cells/mL, the cells were cultured with the drug-containing medium. The relationship between cells uptake and uptake time, the concentration of A-nor-5α-androstane compound (Ia) were examined. After the experiment was completed, the cells were scraped off and the cells were broken by multiple freezing-thawing. The samples of the cells were precipitated by acetonitrile and then subjected to HPLC analysis.

[8] = rat duodenum, circulating fluid pH 5.5
[9] = rat ileum, circulating fluid pH 6.8
[10] = rat jejunum, circulating fluid pH 6.8
[11] = rat jejunum, concentration 25.0 μg/mL
[12] = rat jejunum, concentration 50.0 μg/mL
[13] = rat jejunum, concentration 100.0 μg/mL

C#C[C@@]1(O)C[C@@H]2CC[C@@H]3[C@H](CC[C@@]4(C)[C@H]3CC[C@@]4(O)C#C)[C@@]2(C)C1 [Ia, 2α, 17α-diethynyl-A-nor-5α-androstane-2β, 17β-dihydroxy compound]
LogP ([1]; buffer pH 2.0): ∞ | LogP ([1]; buffer pH 4.5): 4.19 | LogP ([1]; buffer pH 5.0): 3.80 | LogP ([1]; buffer pH 6.0): 2.52 | LogP ([1]; buffer pH 6.8): 0.98 | LogP ([1]; buffer pH 7.4): 0.11 | equilibrium solubility ([2]; pH 1.0 hydrochloric acid): 7.85 ± 0.57 µg/mL | equilibrium solubility ([2]; pH 5.0 PBS): 14.73 ± 0.80 µg/mL | equilibrium solubility ([2]; pH 5.5 PBS): 45.73 ± 0.23 µg/mL | equilibrium solubility ([2]; pH 5.8 PBS): 70.52 ± 1.28 µg/mL | equilibrium solubility ([2]; pH 6.0 PBS): 144.54 ± 0.77 µg/mL | equilibrium solubility ([2]; pH 6.8 PBS): 1388.16 ± 90.95 µg/mL | equilibrium solubility ([2]; pH 7.4 PBS): 4507.97 ± 487.04 µg/mL | water dissolution rate [3]: 6.5 µg/mL | absolute bioavailability ([4]; based on AUC0-t of crude drug): 56.8% | absolute bioavailability ([4]; based on AUC0-t of total main metabolites in vivo): 93.0% | Ka (absorption rate constant) [5, 8]: 4.27 ± 1.53 ×10^−3 min | P (cumulative absorption percentage) [5, 8]: 45.48 ± 9.33% | Q (absorption dose in 2 hours) [5, 8]: 324.42 ± 65.21 μg/2 h | Ka (absorption rate constant) [5, 9]: 7.57 ± 2.56 ×10^−3 min | P (cumulative absorption percentage) [5, 9]: 65.23 ± 11.80% | Q (absorption dose in 2 hours) [5, 9]: 1603.03 ± 289.37 μg/2 h | Ka (absorption rate constant) [5, 10]: 9.53 ± 4.22 ×10^−3 min | P (cumulative absorption percentage) [5, 10]: 71.68 ± 13.48% | Q (absorption dose in 2 hours) [5, 10]: 1809.26 ± 369.52 μg/2 h | Ka (absorption rate constant) [5, 11]: 18.87 ± 2.94 ×10^−3 min | P (cumulative absorption percentage) [5, 11]: 90.27 ± 3.28% | Q (absorption dose in 2 hours) [5, 11]: 1063.39 ± 75.81 μg/2 h | Ka (absorption rate constant) [5, 12]: 9.53 ± 4.22 ×10^−3 min | P (cumulative absorption percentage) [5, 12]: 71.68 ± 13.48% | Q (absorption dose in 2 hours) [5, 12]: 1809.26 ± 369.52 μg/2 h | Ka (absorption rate constant) [5, 13]: 5.50 ± 0.36 ×10^−3 min | P (cumulative absorption percentage) [5, 13]: 53.25 ± 2.77% | Q (absorption dose in 2 hours) [5, 13]: 2636.52 ± 137.86 μg/2 h | relationship between absorption and concentration ([5]; rat jejunum, y=20.34x+649.7, r=0.9869): good linear relationship | absorption percentages ([5]; rat, both jejunum and ileum): > 50% | apparent permeability coefficient (Papp) ([6]; all Papps under various conditions): > 1 ×10⁻⁶ cm/s | ER (efflux rate) ([6]; concentration 0.5 mg/mL): 1.94 | Papp A-B ([6]; concentration 0.5 mg/mL): 2.59 ± 0.17 ×10^−6 cm/s | Papp B-A ([6]; concentration 0.5 mg/mL): 5.02 ± 0.50 ×10^−6 cm/s | ER (efflux rate) ([6]; concentration 0.75 mg/mL): 1.62 | Papp A-B ([6]; concentration 0.75 mg/mL): 4.00 ± 0.15 ×10^−6 cm/s | Papp B-A ([6]; concentration 0.75 mg/mL): 6.46 ± 0.71 ×10^−6 cm/s | ER (efflux rate) ([6]; concentration 1.0 mg/mL): 1.82 | Papp A-B ([6]; concentration 1.0 mg/mL): 4.98 ± 0.16 ×10^−6 cm/s | Papp B-A ([6]; concentration 1.0 mg/mL): 9.07 ± 0.35 ×10^−6 cm/s | relationship of uptake amounts with uptake time ([7]; Y=0.204x+6.107, r=0.9952): linear relationship with the uptake time | relationship of uptake amounts with concentration ([7]; y=40.59x−10.47, r=0.9994): linear relationship with the concentration
